Experimental data: patent US20240091200A1 (Lilac Therapeutics, Inc., priority 2019, published 2024)
Several values for one entry are separate records, joined by “and”; a condition that tells them apart may be missing. Equal values may be shown once. Read-outs that look alike come from different tables or passages of the source.

What was measured:
[1] = target: Glycolate oxidase (GO) (Homo sapiens (Human), UniProt Q9UJM8); assay: GO biochemical assay (Amplex Red, 384-well)
Experimental: Amplex® Red Hydrogen Peroxide/Peroxidase Assay Kit (Catalog no. A22188) was purchased from Thermo Fisher (Waltham, MA).
The reaction was mixed and incubated at room temperature for 20 min followed by reading the plates by EnVision plate reader (Perkin Elmer, San Jose, CA) with excitation at 570 nm and emission 585 nm. […] The % inhibition as calculated as 100%×(Well-Negative)/(Positive-Negative)

[2] = Plasma pharmacokinetics after an oral dose of Example 2 in SD rats; type: in vivo, Sprague Dawley rats; conditions: Example 2 in plasma, PO Example 2 5 mg/kg
Experimental: An oral dose of Example 2 was formulated in a sterile solution of 50% water, 37.5% PEG 300, and 12.5% DMSO at 1.0 mg/mL. The dosing group consisted of three fasted male Sprague Dawley rats. At dosing, the animals weighed between 0.26 and 0.27 kg. For the oral dosing group, the formulated dose was administered via oral gavage at 5.0 mL/kg for a dose of 5.0 mg/kg. Non-compartmental pharmacokinetic analysis was performed on the plasma concentration-time data.

[3] = male, Sprague Dawley, rat, plasma, po, 5 mg/kg, individual rats
[4] = male, Sprague Dawley, rat, plasma, po, 5 mg/kg, mean n=3

Sequence of Glycolate oxidase (GO) (Q9UJM8 whole entry): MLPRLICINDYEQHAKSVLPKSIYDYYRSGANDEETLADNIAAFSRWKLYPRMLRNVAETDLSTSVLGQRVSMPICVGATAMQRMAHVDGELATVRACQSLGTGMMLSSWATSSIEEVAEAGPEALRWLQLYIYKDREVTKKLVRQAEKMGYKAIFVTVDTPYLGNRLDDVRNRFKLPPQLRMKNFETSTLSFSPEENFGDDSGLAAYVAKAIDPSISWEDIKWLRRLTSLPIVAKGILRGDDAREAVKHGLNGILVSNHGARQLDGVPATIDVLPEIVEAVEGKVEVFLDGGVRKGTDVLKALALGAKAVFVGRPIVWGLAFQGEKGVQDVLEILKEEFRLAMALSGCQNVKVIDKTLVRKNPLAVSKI

IC50 [1]: 1000 nM | AUC0-24 h ([2]; individual rats): 1550 nM·h and 1850 nM·h | AUCinf ([2]; individual rats): 1570 nM·h and 1900 nM·h | Cmax ([2]; individual rats): 2530 nM and 2110 nM | Tmax ([2]; individual rats): 30 min | AUCinf ([2]; mean n=3): 1600 nM·h | AUC(0-inf) [2, 3]: 1.34 µM·h | Cmax [2, 3]: 2540 nM | AUC(0-t) ([2]; male, Sprague Dawley, rat, plasma, po, 5 mg/kg, individual rats, read-out: AUC0-24 h): 1.27 µM·h | Tmax ([2]; male, Sprague Dawley, rat, plasma, po, 5 mg/kg, individual rats, read-out: Tmax): 15 min | AUC(0-inf) [2, 4]: 1.6 ± 0.28 µM·h | Cmax [2, 4]: 2390 ± 246 nM | AUC(0-t) ([2]; male, Sprague Dawley, rat, plasma, po, 5 mg/kg, mean n=3, read-out: AUC0-24 h): 1.56 µM·h | Tmax ([2]; male, Sprague Dawley, rat, plasma, po, 5 mg/kg, mean n=3, read-out: Tmax): 19.8 min
SMILES: CCOC(=O)c1[nH]nnc1-c1ccc(-c2ccc(C(N)=O)cc2)cc1 [Example 2, ethyl 4-(4carbamoyl-[1,1biphenyl]-4-yl)-1H-1,2,3-triazole-5-carboxylate]
